Test results taken from patent US20250326771A1, “PIPERAZINE DERIVATIVES USEFUL IN HIV THERAPY” (VIIV HEALTHCARE COMPANY, priority 2022, published 2025).
pIC50: −log10 of the molar value.

Experiments:
cIAP1-BIR2 = cIAP1-BIR2 (Homo sapiens (Human), UniProt Q13490); experiment: BIR binding assay (FRET competition), cIAP1 BIR2
Outline: (§1)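 615/665 nm FRET ratio. Compound, His-domain and 200 nM AF647-SMAC peptide incubated 60 min, then 2 nM Eu-W1024 for 30 min. Domains: cIAP1-BIR3 50 nM; XIAP-BIR3 100 nM; cIAP1-BIR2, cIAP2-BIR2 325 nM each. 15-pt 3-fold series; variable-slope IC50.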

cIAP2-BIR2 = cIAP2-BIR2 (Homo sapiens (Human), UniProt Q13489); experiment: BIR binding assay (FRET competition), cIAP2 BIR2
Experimental: The BIR domain binding assays are FRET based competition assays that utilize His-tagged versions of each of the BIR2 and BIR3 domains from cIAP1, cIAP2, and XIAP (each domain assayed separately) each at a custom optimal concentration and a probe, 200 nM SMAC/DIABLO peptide […] labelled with AlexaFluor647 (part #crb 1110326h, Discovery Peptides). The assay is conducted in 50 mM HEPES, […], 1 mM CHAPS, 5% Glycerol, 1 mM DTT, in dI water with a final pH of 7.4 and final volume of 20 uL. Final protein domain concentrations are: 50 nM cIAP1-BIR3 (Part #APT-11-370 Reaction Biology), 100 nM XIAP-BIR3 (Part #APT-11-351 Reaction Biology), 200 nM XIAP-BIR2 (Part #APT-11-470 Reaction Biology), 325 nM cIAP2-BIR2 (Part #APT-11-489 Reaction Biology), 50 nM cIAP2-BIR3 (Part #APT-11-372 Reaction Biology), 325 nM cIAP1-BIR2 (Part #APT-11-487 Reaction Biology). Compounds were plated using a HP Tecan D300 printer in a final total volume of 202 nl and DMSO concentration normalized across the 15-point, 3-fold dilution series. Peptide and probe were prepared at 2× relative to the concentrations above in binding buffer, 10 uL added to the prepared compound plates, and incubated for 60 minutes. LANCE Eu-W1024 (part #AD0401 Perkin Elmer #, vendor) was prepared at 2× concentration in binding buffer for final concentration of 2 nM, 10 uL added to each well, and plates incubated for 30 minutes. Plates were read on an ENVISION multifunction plate reader with […] laser excitation to obtain the 615 nm/665 nm emission ratio as indicative of probe:protein proximity. Data was analyzed using GraphPad PRISM and curves fit using log(inhibitor) vs. response—Variable slope (four […] method to obtain IC50 and pIC50 values.

cIAP1-BIR3 = cIAP1-BIR3 (Homo sapiens (Human), UniProt Q13490); experiment: BIR binding assay (FRET competition), cIAP1 BIR3; conditions: for cIAP1 BIR3 vs BIR2 separation window: fold separation (FS) for cIAP1
Outline: as §1

cIAP2-BIR3 = cIAP2-BIR3 (Homo sapiens (Human), UniProt Q13489); experiment: BIR binding assay (FRET competition), cIAP2 BIR3; conditions: for cIAP2 BIR3 vs BIR2 separation window: fold separation (FS) for cIAP2
[1] = test system: Jurkat HIV-luciferase clones; experiment: Jurkat latency reversal assay; type: cell-based; conditions: Jurkat latency reversal assay potency; for EC50: Homo sapiens, 48 h, read-out: Jurkat pEC50 (converted)
Outline: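 Three pooled Jurkat reporter clones, each with one or two integrated HIV-luciferase proviruses, 5,000 cells/well; duplicate 14-point titrations starting at 10 μM; 48 h, 37° C, then Steady-Glo luminescence; four-parameter logistic analysis yields EC50 and percent maximal activation against DMSO vehicle.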

XIAP-BIR3 = XIAP-BIR3 (Homo sapiens (Human), UniProt P98170); experiment: BIR binding assay (FRET competition), XIAP BIR3
Outline: as §1

Chain of cIAP1-BIR2 (Q13490 173-257): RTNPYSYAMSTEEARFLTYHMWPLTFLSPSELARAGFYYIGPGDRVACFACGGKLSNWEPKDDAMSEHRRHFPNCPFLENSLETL
Chain of cIAP2-BIR3 (Q13489 238-349): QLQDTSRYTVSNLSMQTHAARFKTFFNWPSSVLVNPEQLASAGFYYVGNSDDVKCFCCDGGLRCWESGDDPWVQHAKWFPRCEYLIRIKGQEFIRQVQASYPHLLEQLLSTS
Chain of cIAP1-BIR3 (Q13490 253-363): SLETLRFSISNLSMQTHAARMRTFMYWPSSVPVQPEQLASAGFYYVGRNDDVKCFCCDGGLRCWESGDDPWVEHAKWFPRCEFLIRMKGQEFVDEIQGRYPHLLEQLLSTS
Chain of XIAP-BIR3 (P98170 241-356): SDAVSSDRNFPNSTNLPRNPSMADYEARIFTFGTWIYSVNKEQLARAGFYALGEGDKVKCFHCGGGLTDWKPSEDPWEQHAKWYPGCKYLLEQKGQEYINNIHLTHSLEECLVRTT
Chain of cIAP2-BIR2 (Q13489 158-242): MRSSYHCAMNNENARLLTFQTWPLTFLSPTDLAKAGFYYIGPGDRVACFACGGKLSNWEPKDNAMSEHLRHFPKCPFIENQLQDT

| SMILES | pIC50 (cIAP1-BIR2) | pIC50 (cIAP2-BIR2) | pIC50 (cIAP1-BIR3) | cIAP1 BIR3 vs BIR2 separation window (cIAP1-BIR3) | pIC50 (cIAP2-BIR3) | cIAP2 BIR3 vs BIR2 separation window (cIAP2-BIR3) | EC50 [1] | pIC50 (XIAP-BIR3) | cIAP1 BIR2 (pIC50) (cIAP1-BIR2; FRET competition binding) | cIAP2 BIR2 (pIC50) (cIAP2-BIR2; FRET competition binding) | cIAP1 BIR3 (pIC50) (cIAP1-BIR3; FRET competition binding) | cIAP2 BIR3 (pIC50) (cIAP2-BIR3; FRET competition binding) | Jurkat pEC50 [1] | XIAP BIR3 (pIC50) (XIAP-BIR3; FRET competition binding) |
| --- | --- | --- | --- | --- | --- | --- | --- | --- | --- | --- | --- | --- | --- | --- |
| C[C@@H]1CN(CC(=O)N2CC(C)(C)c3[nH]c(=O)c(Cc4ccc(F)cc4)cc32)[C@@H](CN2CCN(C(=O)/C=C/c3ccc(/C=C/C(=O)N4CCN(C[C@H]5CN[C@H](C)CN5CC(=O)N5CC(C)(C)c6[nH]c(=O)c(Cc7ccc(F)cc7)cc65)[C@H](C)C4)cc3)C[C@H]2C)CN1 [Example 14, 1,1′-(2,2′-((3R,3′R,6R,6′R)-(((2R,2′R)-((2E,2′E)-3,3′-(1,4-phenylene)bis(acryloyl))bis(2-methylpiperazine-4,1-diyl))bis(methylene))bis(3-methylpiperazine-6,1-diyl))bis(acetyl))bis(6-(4-fluorobenzyl)-3,3-dimethyl-1,2,3,4-tetrahydro-5H-pyrrolo[3,2-b]pyridin-5-one)] | 6.00 to 7.65 | 6.00 to 7.65 | 7.50 to 7.80 | ++ (1,000>FS>100) | 7.50 to 7.80 | ++ (1,000>FS>100) | 63.1 to 316 nM | 7.50 to 7.80 | – | – | – | – | – | – |
| C[C@@H]1CN(CC(=O)N2CC(C)(C)c3[nH]c(=O)c(Cc4ccc(F)cc4)cc32)[C@@H](CN2CCN(C(=O)c3ccc(/C=C/c4ccc(C(=O)N5CCN(C[C@H]6CN[C@H](C)CN6CC(=O)N6CC(C)(C)c7[nH]c(=O)c(Cc8ccc(F)cc8)cc76)[C@H](C)C5)cc4)cc3)C[C@H]2C)CN1 [Example 20, 1,1′-(2,2′-((3R,3′R,6R,6′R)-(((2R,2′R)-(4,4′-((E)-ethene-1,2-diyl)bis(benzoyl))bis(2-methylpiperazine-4,1-diyl))bis(methylene))bis(3-methylpiperazine-6,1-diyl))bis(acetyl))bis(6-(4-fluorobenzyl)-3,3-dimethyl-1,2,3,4-tetrahydro-5H-pyrrolo[3,2-b]pyridin-5-one)] | 6.00 to 7.65 | 6.00 to 7.65 | 7.50 to 7.80 | + (100>FS>1) | 7.50 to 7.80 | ++ (1,000>FS>100) | 12.6 to 63.1 nM | 6.30 to 7.50 | – | – | – | – | – | – |
| C[C@@H]1CN(CC(=O)N2CC(C)(C)c3[nH]c(=O)c(Cc4ccc(F)cc4)cc32)[C@@H](CN2CCN(CCCCCCCCCCN3CCN(C[C@H]4CN[C@H](C)CN4CC(=O)N4CC(C)(C)c5[nH]c(=O)c(Cc6ccc(F)cc6)cc54)[C@H](C)C3)C[C@H]2C)CN1 [Example 25, 1,1′-(2,2′-((3R,3′R,6R,6′R)-(((2R,2′R)-decane-1,10-diylbis(2-methylpiperazine-4,1-diyl))bis(methylene))bis(3-methylpiperazine-6,1-diyl))bis(acetyl))bis(6-(4-fluorobenzyl)-3,3-dimethyl-1,2,3,4-tetrahydro-5H-pyrrolo[3,2-b]pyridin-5-one)] | 6.00 to 7.65 | 6.00 to 7.65 | 7.80 to 8.10 | ++ (1,000>FS>100) | 8.10 to 8.86 | +++ (10,000>FS>1,000) | 12.6 to 63.1 nM | 7.80 to 8.10 | – | – | – | – | – | – |
| C[C@@H]1CN(CC(=O)N2CC(C)(C)c3[nH]c(=O)c(Cc4ccc(F)cc4)cc32)[C@@H](CN2CCN(CCCCCCCCCCCCN3CCN(C[C@H]4CN[C@H](C)CN4CC(=O)N4CC(C)(C)c5[nH]c(=O)c(Cc6ccc(F)cc6)cc54)[C@H](C)C3)C[C@H]2C)CN1 [Example 26, 1,1′-(2,2′-((3R,3′R,6R,6′R)-(((2R,2′R)-dodecane-1,12-diylbis(2-methylpiperazine-4,1-diyl))bis(methylene))bis(3-methylpiperazine-6,1-diyl))bis(acetyl))bis(6-(4-fluorobenzyl)-3,3-dimethyl-1,2,3,4-tetrahydro-5H-pyrrolo[3,2-b]pyridin-5-one)] | 5.50 to 6.00 | 5.50 to 6.00 | 6.30 to 7.50 | – | 7.80 to 8.10 | – | 12.6 to 63.1 nM | 7.50 to 7.80 | – | – | – | – | – | – |
| C[C@@H]1CN(CC(=O)N2CC(C)(C)c3[nH]c(=O)c(Cc4ccc(F)cc4)cc32)[C@@H](CN2CCC[C@H](NC(=O)CCCCCCCCCCCCC(=O)N[C@H]3CCCN(C[C@H]4CN[C@H](C)CN4CC(=O)N4CC(C)(C)c5[nH]c(=O)c(Cc6ccc(F)cc6)cc54)C3)C2)CN1 [Example 40, N^1,N^14-bis((S)-1-(((2R,5R)-1-(2-(6-(4-fluorobenzyl)-3,3-dimethyl-5-oxo-2,3,4,5-tetrahydro-1H-pyrrolo[3,2-b]pyridin-1-yl)-2-oxoethyl)-5-methylpiperazin-2-yl)methyl)piperidin-3-yl)tetradecanediamide] | 4.29 to 5.00 | 4.29 to 5.00 | 7.50 to 7.80 | +++ (10,000>FS>1,000) | 7.50 to 7.80 | +++ (10,000>FS>1,000) | 63.1 to 316 nM | 6.30 to 7.50 | – | – | – | – | – | – |
| C[C@@H]1CN(CC(=O)N2CC(C)(C)c3[nH]c(=O)c(Cc4ccc(F)cc4)cc32)[C@@H](CN2CCO[C@H](COc3ccc(Oc4ccc(OC[C@@H]5CN(C[C@H]6CN[C@H](C)CN6CC(=O)N6CC(C)(C)c7[nH]c(=O)c(Cc8ccc(F)cc8)cc76)CCO5)cc4)cc3)C2)CN1 [Example 55, 1,1′-(2,2′-((3R,3′R,6R,6′R)-(((2S,2'S)-(((oxybis(4,1-phenylene))bis(oxy))bis(methylene))bis(morpholine-2,4-diyl))bis(methylene))bis(3-methylpiperazine-6,1-diyl))bis(acetyl))bis(6-(4-fluorobenzyl)-3,3-dimethyl-1,2,3,4-tetrahydro-5H-pyrrolo[3,2-b]pyridin-5-one)] | – | – | – | ++++ (FS>10,000) | – | ++++ (FS>10,000) | – | – | + (4.29<pIC50<=5.00) | + (4.29<pIC50<=5.00) | + (7.50>pIC50>=6.30) | +++ (8.10>pIC50>=7.80) | ++++ (9.31>pEC50>=7.90) | ++ (7.80>pIC50>=7.50) |
| C[C@@H]1CN(CC(=O)N2CC(C)(C)c3[nH]c(=O)c(Cc4ccc(F)cc4)cc32)[C@@H](CN2CCO[C@H](COc3ccc(C(=O)C(=O)c4ccc(OC[C@@H]5CN(C[C@H]6CN[C@H](C)CN6CC(=O)N6CC(C)(C)c7[nH]c(=O)c(Cc8ccc(F)cc8)cc76)CCO5)cc4)cc3)C2)CN1 [Example 59, 1,2-bis(4-(((S)-4-(((2R,5R)-1-(2-(6-(4-fluorobenzyl)-3,3-dimethyl-5-oxo-2,3,4,5-tetrahydro-1H-pyrrolo[3,2-b]pyridin-1-yl)-2-oxoethyl)-5-methylpiperazin-2-1)methyl)morpholin-2-yl)methoxy)phenyl)ethane-1,2-dione] | 5.00 to 5.50 | 5.00 to 5.50 | 7.50 to 7.80 | +++ (10,000>FS>1,000) | 7.80 to 8.10 | +++ (10,000>FS>1,000) | 0.49 to 12.6 nM | 7.50 to 7.80 | – | – | – | – | – | – |
| C[C@@H]1CN(CC(=O)N2CC(C)(C)c3[nH]c(=O)c(Cc4ccc(F)cc4)cc32)[C@@H](CN2CCO[C@H](COCCCCCCOC[C@@H]3CN(C[C@H]4CN[C@H](C)CN4CC(=O)N4CC(C)(C)c5[nH]c(=O)c(Cc6ccc(F)cc6)cc54)CCO3)C2)CN1 [Example 64, 1,1′-(2,2′-((3R,3′R,6R,6′R)-(((2S,2'S)-((hexane-1,6-diylbis(oxy))bis(methylene))bis(morpholine-2,4-diyl))bis(methylene))bis(3-methylpiperazine-6,1-diyl))bis(acetyl))bis(6-(4-fluorobenzyl)-3,3-dimethyl-1,2,3,4-tetrahydro-5H-pyrrolo[3,2-b]pyridin-5-one)] | 4.29 to 5.00 | 4.29 to 5.00 | 7.80 to 8.10 | – | 8.10 to 8.86 | – | 0.49 to 12.6 nM | 7.80 to 8.10 | – | – | – | – | – | – |
